Counter-ions that a name gives are not always drawn.
Tested on: influx of neutrophils to the lung in LPS-challenged rats
Experiment: Rat LPS neutrophilia model
Type: in vivo
Conditions: LPS aerosol, intratracheal dosing, in at least one of the range of conditions tested, significance p<0.05
Experimental: Rat LPS Neutrophilia Model
The effect of compounds on the influx of neutrophils to the lung in LPS-challenged rats is evaluated as follows. The test compound is suspended in one of the following solutions: 0.5% tween 80/PBS, 0.5% tween 80/saline, 10% EtOH/saline (with pH adjusted to 2.0, or 8.0 with HCl, or unadjusted), Saline @pH 2.0, 6.5 or 8.0, 0.5% Tragacanth, 1% DMSO/20% Encapsin/Saline, or acidified 5% Tragacanth. The suspension process may be aided by the use of a glass homogenizer. For intratracheal administration, the animals are anesthetized with inhaled isoflurane and placed in a supine position, the trachea is intubated with a steel gavage needle (1.5 inch, 22 gauge, small ball) or a Penn-Century Microsprayer Aerosolizer (model IA-1B) and 200 ul of dosing solution is delivered. The animals are visually monitored during the recovery process, which typically occurs within two minutes. It is noted that the test compounds may be alternatively administered via the microsprayer in a dry powder blend with a suitable excipient, such as lactose.
Rats treated with compound or vehicle (15 min-24 hours pretreatment) are exposed to an LPS aerosol (100 ug/ml) for 15 min. Four hours later the rats are euthanized with pentobarbital (100 mg/kg, i.p.) and the airways are lavaged with 5 washes of 5 ml of phosphate buffered saline. The harvested cells are stained (Diffquick) and counted to determine total and differential cell data. […] Inhibition of neutrophil levels relative to no compound controls is calculated based on the differential counts.
The data is obtained as % inhibition using a particular concentration and pretreat time.

Q: Which inhibition of neutrophilia does the source give for `CCN(CC)CCCNc1nc(-c2cc(C(=O)Nc3ccc(F)cc3)ccc2C)c2ccc(=O)n(-c3c(F)cccc3F)c2n1` [Example 160, 3-[2-{[3-(diethylamino)propyl]amino}-8-(2,6-difluorophenyl)-7-oxo-7,8-dihydropyrido[2,3-d]pyrimidin-4-yl]-N-(4-fluorophenyl)-4-methylbenzamide] here?
A: statistically significant inhibition

Q: Which inhibition of neutrophilia does the source give for `CCN(CC)CCCNc1nc(-c2cc(C(=O)NC3CCC3)ccc2C)c2ccc(=O)n(-c3c(F)cccc3F)c2n1` [Example 137, N-cyclobutyl-3-[2-{[3-(diethylamino)propyl]amino}-8-(2,6-difluorophenyl)-7-oxo-7,8-dihydropyrido[2,3-d]pyrimidin-4-yl]-4-methylbenzamide trifluoroacetate] here?
A: statistically significant inhibition

Q: Which inhibition of neutrophilia does the source give for `Cc1ccc(C(=O)Nc2nccs2)cc1-c1nc(N(C)CCCN(C)C)nc2c1ccc(=O)n2-c1c(F)cccc1F` [Example 107, 3-{8-(2,6-difluorophenyl)-2-[[3-(dimethylamino)propyl](methyl)amino]-7-oxo-7,8-dihydropyrido[2,3-d]pyrimidin-4-yl}-4-methyl-N-1,3-thiazol-2-ylbenzamide] here?
A: statistically significant inhibition

Q: With `CCNC(=O)c1ccc(C)c(-c2nc(N3CCC(N4CCC(C)CC4)CC3)nc3c2ccc(=O)n3-c2c(F)cccc2F)c1` [Example 173, 3-[8-(2,6-difluorophenyl)-2-(4-methyl-1,4′-bipiperidin-1′-yl)-7-oxo-7,8-dihydropyrido[2,3-d]pyrimidin-4-yl]-N-ethyl-4-methylbenzamide] as the molecule, how does the inhibition of neutrophilia read?
A: statistically significant inhibition

Q: For `CCCCNC(=O)c1ccc(C)c(-c2nc(N3CCC(N4CCC(C)CC4)CC3)nc3c2ccc(=O)n3-c2c(F)cccc2F)c1` [Example 167, N-butyl-3-[8-(2,6-difluorophenyl)-2-(4-methyl-1,4′-bipiperidin-1′-yl)-7-oxo-7,8-dihydropyrido[2,3-d]pyrimidin-4-yl]-4-methylbenzamide], which inhibition of neutrophilia is on record?
A: statistically significant inhibition

Q: For `Cc1ccc(C(=O)NC(C)C)cc1-c1nc(N2CCC(N)CC2)nc2c1ccc(=O)n2-c1c(F)cccc1F` [Example 68, 3-[2-(4-amino-1-piperidinyl)-8-(2,6-difluorophenyl)-7-oxo-7,8-dihydropyrido[2,3-d]pyrimidin-4-yl]-4-methyl-N-(1-methylethyl)benzamide], which inhibition of neutrophilia is on record?
A: statistically significant inhibition

Q: How did the inhibition of neutrophilia turn out when `Cc1ccc(NC(=O)c2cccc3cc[nH]c23)cc1-c1nc(NC(CO)CO)nc2c1ccc(=O)n2-c1c(F)cccc1F` [Example 44, N-[3-(8-(2,6-difluorophenyl)-2-{[2-hydroxy-1-(hydroxymethyl)ethyl]amino}-7-oxo-7,8-dihydropyrido[2,3-d]pyrimidin-4-yl)-4-methylphenyl]-1H-indole-7-carboxamide trifluoroacetate] was run?
A: statistically significant inhibition

Q: For `Cc1ccc(C(=O)NCCc2ccccc2)cc1-c1nc(NC2CC(C)(C)NC(C)(C)C2)nc2c1ccc(=O)n2-c1c(F)cccc1F` [Example 28, 3-{8-(2,6-difluorophenyl)-7-oxo-2-[(2,2,6,6-tetramethyl-4-piperidinyl)amino]-7,8-dihydropyrido[2,3-d]pyrimidin-4-yl}-4-methyl-N-(2-phenylethyl)benzamide], which inhibition of neutrophilia is on record?
A: statistically nonsignificant inhibition

Q: How did the inhibition of neutrophilia turn out when `Cc1ccc(C(=O)Nc2ccc(F)cc2)cc1-c1nc(NC2CC(C)(C)NC(C)(C)C2)nc2c1ccc(=O)n2-c1c(F)cccc1F` [Example 66, 3-{8-(2,6-difluorophenyl)-7-oxo-2-[(2,2,6,6-tetramethyl-4-piperidinyl)amino]-7,8-dihydropyrido[2,3-d]pyrimidin-4-yl}-N-(4-fluorophenyl)-4-methylbenzamide] was run?
A: statistically significant inhibition

Q: How did the inhibition of neutrophilia turn out when `CNCCNc1nc(-c2cc(C(=O)NC(C)C)ccc2C)c2ccc(=O)n(-c3c(F)cccc3F)c2n1` [Example 57, 3-(8-(2,6-difluorophenyl)-2-{[2-(methylamino)ethyl]amino}-7-oxo-7,8-dihydropyrido[2,3-d]pyrimidin-4-yl)-4-methyl-N-(1-methylethyl)benzamide] was run?
A: statistically significant inhibition

Q: How did the inhibition of neutrophilia turn out when `CCN(CC)CCCNc1nc(-c2cc(C(=O)NC3CC3)cc(F)c2C)c2ccc(=O)n(-c3c(F)cccc3F)c2n1` [Example 185, N-cyclopropyl-3-[2-{[3-(diethylamino)propyl]amino}-8-(2,6-difluorophenyl)-7-oxo-7,8-dihydropyrido[2,3-d]pyrimidin-4-yl]-5-fluoro-4-methylbenzamide] was run?
A: statistically nonsignificant inhibition

Q: With `Cc1ccc(C(=O)Nc2nccs2)cc1-c1nc(NCc2ncc[nH]2)nc2c1ccc(=O)n2-c1c(F)cccc1F` [79(c), 3-{8-(2,6-difluorophenyl)-2-[(1H-imidazol-2-ylmethyl)amino]-7-oxo-7,8-dihydropyrido[2,3-d]pyrimidin-4-yl}-4-methyl-N-1,3-thiazol-2-ylbenzamide] as the molecule, how does the inhibition of neutrophilia read?
A: statistically significant inhibition

Q: For `Cc1ccc(C(=O)NC2CCCC2)cc1-c1nc(N2CCC(N3CCC(C)CC3)CC2)nc2c1ccc(=O)n2-c1c(F)cccc1F` [Example 169, N-cyclopentyl-3-[8-(2,6-difluorophenyl)-2-(4-methyl-1,4′-bipiperidin-1′-yl)-7-oxo-7,8-dihydropyrido[2,3-d]pyrimidin-4-yl]-4-methylbenzamide], which inhibition of neutrophilia is on record?
A: statistically nonsignificant inhibition

Q: How did the inhibition of neutrophilia turn out when `CCCNC(=O)c1cc(F)c(C)c(-c2nc(NCCCN(CC)CC)nc3c2ccc(=O)n3-c2c(F)cccc2F)c1` [Example 181, 3-[2-{[3-(diethylamino)propyl]amino}-8-(2,6-difluorophenyl)-7-oxo-7,8-dihydropyrido[2,3-d]pyrimidin-4-yl]-5-fluoro-4-methyl-N-propylbenzamide] was run?
A: statistically nonsignificant inhibition

Q: `Cc1ccc(C(=O)Nc2nccs2)cc1-c1nc(N2CCC(N)CC2)nc2c1ccc(=O)n2-c1c(F)cccc1F` [Example 73, 3-[2-(4-amino-1-piperidinyl)-8-(2,6-difluorophenyl)-7-oxo-7,8-dihydropyrido[2,3-d]pyrimidin-4-yl]-4-methyl-N-1,3-thiazol-2-ylbenzamide] was tested. Which inhibition of neutrophilia did it give?
A: statistically significant inhibition

Q: How did the inhibition of neutrophilia turn out when `Cc1ccc(NC(=O)c2ccsc2)cc1-c1nc(NC2CC(C)(C)NC(C)(C)C2)nc2c1ccc(=O)n2-c1c(F)cccc1F` [31(e), N-(3-{8-(2,6-difluorophenyl)-7-oxo-2-[(2,2,6,6-tetramethyl-4-piperidinyl)amino]-7,8-dihydropyrido[2,3-d]pyrimidin-4-yl}-4-methylphenyl)-3-thiophenecarboxamide] was run?
A: statistically significant inhibition

Q: How did the inhibition of neutrophilia turn out when `CCCNC(=O)c1ccc(C)c(-c2nc(NCCCN(CC)CC)nc3c2ccc(=O)n3-c2c(F)cccc2F)c1` [Example 122, 3-[2-{[3-(diethylamino)propyl]amino}-8-(2,6-difluorophenyl)-7-oxo-7,8-dihydropyrido[2,3-d]pyrimidin-4-yl]-4-methyl-N-propylbenzamide] was run?
A: statistically nonsignificant inhibition

Source: patent US20100144755A1 (Glaxo Group Limited, priority 2006, published 2010)
